Reference: the NIST ThermoML archive (doi:10.1016/j.jct.2015.12.017)

Assay: molar heat capacity at constant pressure
Details: 101.33 kPa

O=P([O-])([O-])[O-].[Co+2].[Cs+] [cesium cobalt(II) phosphate]
Details | molar heat capacity at constant pressure [J/K/mol]
304.98 K, Crystal 4, Vacuum adiabatic calorimetry | 136.11
305.47 K, Crystal 4, Vacuum adiabatic calorimetry | 136.19
306.97 K, Crystal 4, Vacuum adiabatic calorimetry | 137.44
307.51 K, Crystal 4, Vacuum adiabatic calorimetry | 137.6
308.95 K, Crystal 4, Vacuum adiabatic calorimetry | 138.69
309.32 K, Crystal 4, Vacuum adiabatic calorimetry | 139.1
310 K, Crystal 4, Vacuum adiabatic calorimetry | 136.94
310.91 K, Crystal 4, Vacuum adiabatic calorimetry | 142.43
311.46 K, Crystal 4, Vacuum adiabatic calorimetry | 142.34
312.84 K, Crystal 4, Vacuum adiabatic calorimetry | 144.42
313.4 K, Crystal 3, Vacuum adiabatic calorimetry | 139.93
313.4 K, Crystal 4, Vacuum adiabatic calorimetry | 137.85
313.44 K, Crystal 3, Vacuum adiabatic calorimetry | 144.34
314.77 K, Crystal 3, Vacuum adiabatic calorimetry | 143.84
315.42 K, Crystal 3, Vacuum adiabatic calorimetry | 144.09
316.69 K, Crystal 3, Vacuum adiabatic calorimetry | 142.51
317.39 K, Crystal 3, Vacuum adiabatic calorimetry | 143.18
318.6 K, Crystal 3, Vacuum adiabatic calorimetry | 141.68
319.35 K, Crystal 3, Vacuum adiabatic calorimetry | 142.51
320 K, Crystal 3, Vacuum adiabatic calorimetry | 142.34
320.51 K, Crystal 3, Vacuum adiabatic calorimetry | 142.01
321.31 K, Crystal 3, Vacuum adiabatic calorimetry | 142.84
322.4 K, Crystal 3, Vacuum adiabatic calorimetry | 142.76
323.26 K, Crystal 3, Vacuum adiabatic calorimetry | 143.42
324.27 K, Crystal 3, Vacuum adiabatic calorimetry | 143.42
325.2 K, Crystal 3, Vacuum adiabatic calorimetry | 144.09
326.14 K, Crystal 3, Vacuum adiabatic calorimetry | 144.09
327.14 K, Crystal 3, Vacuum adiabatic calorimetry | 144.59
327.98 K, Crystal 3, Vacuum adiabatic calorimetry | 144.75
329.07 K, Crystal 3, Vacuum adiabatic calorimetry | 145.09
330 K, Crystal 3, Vacuum adiabatic calorimetry | 145.34
330.98 K, Crystal 3, Vacuum adiabatic calorimetry | 145.59
332.87 K, Crystal 3, Vacuum adiabatic calorimetry | 146
334.4 K, Crystal 3, Small sample (50 mg) DSC | 146.33
334.77 K, Crystal 3, Vacuum adiabatic calorimetry | 146.58
336.65 K, Crystal 3, Vacuum adiabatic calorimetry | 147.08
336.9 K, Crystal 3, Small sample (50 mg) DSC | 147.17
338.52 K, Crystal 3, Vacuum adiabatic calorimetry | 147.5
339.4 K, Crystal 3, Small sample (50 mg) DSC | 148
340 K, Crystal 3, Vacuum adiabatic calorimetry | 147.91
340.21 K, Crystal 3, Vacuum adiabatic calorimetry | 148
341.82 K, Crystal 3, Vacuum adiabatic calorimetry | 148.41
341.9 K, Crystal 3, Small sample (50 mg) DSC | 148
343.88 K, Crystal 3, Vacuum adiabatic calorimetry | 149.08
344.4 K, Crystal 3, Small sample (50 mg) DSC | 148.83
345.68 K, Crystal 3, Vacuum adiabatic calorimetry | 149.58
346.9 K, Crystal 3, Small sample (50 mg) DSC | 149.66
347.49 K, Crystal 3, Vacuum adiabatic calorimetry | 150.08
349.26 K, Crystal 3, Vacuum adiabatic calorimetry | 150.49
349.4 K, Crystal 3, Small sample (50 mg) DSC | 150.49
350 K, Crystal 3, Small sample (50 mg) DSC | 150.41
351.9 K, Crystal 3, Small sample (50 mg) DSC | 151.32
354.4 K, Crystal 3, Small sample (50 mg) DSC | 151.32
356.9 K, Crystal 3, Small sample (50 mg) DSC | 152.15
359.4 K, Crystal 3, Small sample (50 mg) DSC | 152.99
360 K, Crystal 3, Small sample (50 mg) DSC | 152.74
361.9 K, Crystal 3, Small sample (50 mg) DSC | 152.99
364.4 K, Crystal 3, Small sample (50 mg) DSC | 152.99
366.9 K, Crystal 3, Small sample (50 mg) DSC | 153.82
369.4 K, Crystal 3, Small sample (50 mg) DSC | 154.65
370 K, Crystal 3, Small sample (50 mg) DSC | 154.82
371.9 K, Crystal 3, Small sample (50 mg) DSC | 155.48
374.4 K, Crystal 3, Small sample (50 mg) DSC | 155.48
376.9 K, Crystal 3, Small sample (50 mg) DSC | 156.31
379.4 K, Crystal 3, Small sample (50 mg) DSC | 156.31
380 K, Crystal 3, Small sample (50 mg) DSC | 156.73
381.9 K, Crystal 3, Small sample (50 mg) DSC | 157.14
384.4 K, Crystal 3, Small sample (50 mg) DSC | 157.14
386.9 K, Crystal 3, Small sample (50 mg) DSC | 157.97
389.4 K, Crystal 3, Small sample (50 mg) DSC | 157.97
390 K, Crystal 3, Small sample (50 mg) DSC | 158.47
391.9 K, Crystal 3, Small sample (50 mg) DSC | 158.81
394.4 K, Crystal 3, Small sample (50 mg) DSC | 159.64
396.9 K, Crystal 3, Small sample (50 mg) DSC | 159.64
399.4 K, Crystal 3, Small sample (50 mg) DSC | 160.47
400 K, Crystal 3, Small sample (50 mg) DSC | 160.14
401.9 K, Crystal 3, Small sample (50 mg) DSC | 160.47
404.4 K, Crystal 3, Small sample (50 mg) DSC | 161.3
406.9 K, Crystal 3, Small sample (50 mg) DSC | 161.3
409.4 K, Crystal 3, Small sample (50 mg) DSC | 161.3
410 K, Crystal 3, Small sample (50 mg) DSC | 161.72
411.9 K, Crystal 3, Small sample (50 mg) DSC | 162.13
414.4 K, Crystal 3, Small sample (50 mg) DSC | 162.13
416.9 K, Crystal 3, Small sample (50 mg) DSC | 162.96
419.4 K, Crystal 3, Small sample (50 mg) DSC | 162.96
420 K, Crystal 3, Small sample (50 mg) DSC | 163.13
421.9 K, Crystal 3, Small sample (50 mg) DSC | 162.96
424.4 K, Crystal 3, Small sample (50 mg) DSC | 163.8
426.9 K, Crystal 3, Small sample (50 mg) DSC | 163.8
429.4 K, Crystal 3, Small sample (50 mg) DSC | 164.63
430 K, Crystal 3, Small sample (50 mg) DSC | 164.54
431.9 K, Crystal 3, Small sample (50 mg) DSC | 164.63
434.4 K, Crystal 3, Small sample (50 mg) DSC | 165.46
436.9 K, Crystal 3, Small sample (50 mg) DSC | 165.46
439.4 K, Crystal 3, Small sample (50 mg) DSC | 166.29
440 K, Crystal 3, Small sample (50 mg) DSC | 165.96
441.9 K, Crystal 3, Small sample (50 mg) DSC | 166.29
444.4 K, Crystal 3, Small sample (50 mg) DSC | 167.12
446.9 K, Crystal 3, Small sample (50 mg) DSC | 167.12
449.4 K, Crystal 3, Small sample (50 mg) DSC | 167.12
450 K, Crystal 3, Small sample (50 mg) DSC | 167.45
